Columns and labels:
isolated nerve terminals = experiment: Intracellular Ca2+ concentration in isolated nerve terminals (Oregon Green); type: cell-based, mouse; details: wild-type mice; 50 mM KCl
Method: (§1) Cell bodies of hypothalamic neurons and nerve terminals were isolated according to a previously described method (OuYang, W., et al., Brain Res. 1024, 203-21.1 (2004)), then washed with a Locke solution, and homogenized in a solution containing sucrose, 270; HEPES-Tris, 10; and K-EGTA, 0.01 (in mM, pH 7.25). The homogenates were transferred to Petri dishies and left standing for 5 to 8 minutes.
The cells were incubated with Oregon Green for 1 hour to incorporate the dye into the cells. Subsequently, a fluorescence intensity of the cells was measured using an excitation wavelength of 485 nm and a filter of 538 nm. A fluorescence microspectrophotometer and a condenser with an ARGUS-50 CCD camera were used for the measurement.

[1] = tested on: pituitary nerve terminals; experiment: Oxytocin release from isolated pituitary nerve terminals (in vitro); type: cell-based, mouse
Method: as §1
Isolated cells and nerve terminals were left standing for 6 hours, and then, an experiment was started. The specimens were perfused for 45 minutes, and the perfusate was collected at last 5-minute intervals three times in total for control concentration measurement. Subsequently, the specimens were perfused for additional 5 minutes with Locke solution containing 70 mmol of KC1, and oxytocin concentrations in the obtained perfusates were determined using an oxytocin determination kit and considered as concentrations of oxytocin released by depolarization stimulation.

[2] = tested on: postpartum female CD38−/− mice; experiment: Maternal behaviors of postpartum female mice (pup retrieval, crouching) after subcutaneous peptide administration; type: in vivo, mouse; details: once, 1 to 10 ng/kg
Method: Then, each mother mouse was put back at a corner of a cage, and the pups were placed at remaining 3 corners. In this state, behaviors of the mother mouse were observed. A latency to retrieve each pup and a duration of crouching over 3 pups were also measured.
According to a previously described method (Boccia, M. M., et al., Neurobiol. Learn. Memory 69, 136-146 (1998)), oxytocin (OT) or vasopressin (AVP) dissolved in 0.05 M acetic acid was adjusted to 0.01 μM with saline, and this solution was subcutaneously administered once at a dose of 1 to 10 ng/kg body weight […] to the postpartum female CD38−/− mice (N=6 to 8) described above and young male mice (N=10 per group).

[3] = tested on: male CD38−/− and wild-type mice; experiment: Social memory of male mice (olfactory investigation time on repeated encounters); type: in vivo, mouse; details: subcutaneous, once, 1 to 10 ng/kg; for social memory (olfactory investigation): young male CD38−/− mice
students = details: 194 students, intranasal administration, versus placebo; cited from earlier work
[4] = target: ADP-ribosyl cyclase activity (Homo sapiens, UniProt P28907, R140W); details: mutated CD38 found in human diabetes; cited from earlier work
Sequence of ADP-ribosyl cyclase activity (P28907 whole entry R140W): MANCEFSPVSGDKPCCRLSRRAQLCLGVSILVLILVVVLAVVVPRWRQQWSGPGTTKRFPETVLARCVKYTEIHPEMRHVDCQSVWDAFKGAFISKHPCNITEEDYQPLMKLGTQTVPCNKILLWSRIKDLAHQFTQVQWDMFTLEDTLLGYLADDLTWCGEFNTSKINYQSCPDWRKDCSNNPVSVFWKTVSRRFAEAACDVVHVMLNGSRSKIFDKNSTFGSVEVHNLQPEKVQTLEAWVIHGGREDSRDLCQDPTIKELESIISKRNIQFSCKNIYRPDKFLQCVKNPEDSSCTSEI

Which “increase in intracellular Ca2+ concentration” value (isolated nerve terminals) does the source give for 8-bromo-cADPR here?
The value was “significantly inhibited”.

What about the “oxytocin release from the pituitary nerve terminals” value ([1]; wild-type mice, 100 μM, high-potassium depolarization) of the same molecule?
The value was “decreased to same levels as those in the CD38−/− mice”.

With `Nc1ncnc2c1ncn2[C@@H]1O[C@H](COP(=O)(O)OP(=O)(O)OCC2OC([n+]3cccc(C(=O)[O-])c3)C(O)C2O)[C@@H](O)[C@H]1OP(=O)(O)O` (stereo in doubt) [NAADP, nicotinate adenine dinucleotide phosphate] as the molecule, how does the “oxytocin release from the pituitary nerve terminals” value ([1]; all the mice, initially stimulated with Ca2+, 100 nM given outside the cells) read?
Its value is “promoted”.

With `CO/C1=C\C(C)=C\[C@@H](C)[C@@H](O)[C@@H](C)C/C(C)=C/C=C/[C@H](OC)[C@@H]([C@@H](C)[C@@H](O)[C@H](C)[C@@]2(O)C[C@@H](O)[C@H](C)[C@@H](C(C)C)O2)OC1=O` [bafilomycin] as the molecule, how does the “oxytocin release from the pituitary nerve terminals” value ([1]; wild-type mice, 2 μM, high-potassium depolarization) read?
The value was “decreased to same levels as those in the CD38−/− mice”.

What does the source list for `N=c1c2ncn3c2ncn1[C@@H]1O[C@H](COP(=O)(O)OP(=O)(O)OC[C@H]2O[C@@H]3[C@H](O)[C@@H]2O)[C@@H](O)[C@H]1O` [cADPR, cyclic ADP-ribose]?
increase of oxytocin release ([1]; CD38−/− mice, pituitary nerve terminals, 10 μM): 2.5 fold; oxytocin release from the pituitary nerve terminals ([1]; all the mice, initially stimulated with Ca2+, 10 μM given outside the cells): promoted

Which “maternal behaviors (latency to retrieve pups, duration of crouching)” value [2] does the source give for `CC[C@H](C)[C@@H]1NC(=O)[C@H](Cc2ccc(O)cc2)NC(=O)[C@@H](N)CSSC[C@@H](C(=O)N2CCC[C@H]2C(=O)N[C@@H](CC(C)C)C(=O)NCC(N)=O)NC(=O)[C@H](CC(N)=O)NC(=O)[C@H](CCC(N)=O)NC1=O` [oxytocin] here?
The value was “recovered to same levels of maternal behaviors as those of the wild-type mice”.

And the “change in behaviors of wild-type mice” value [3]?
Its value is “no change”.

What about the “social memory (olfactory investigation)” value [3] of the same molecule?
The value was “recovered a social memory”.

What about the “investment in an investment game (trust, prosocial behavior)” value (students) of the same molecule?
The value was “invested more money and more frequently invested a maximum allowable than the placebo group”.

Which “change in behaviors of wild-type mice” value [3] does the source give for `NC(=O)CC[C@@H]1NC(=O)[C@H](Cc2ccccc2)NC(=O)[C@H](Cc2ccc(O)cc2)NC(=O)[C@@H](N)CSSC[C@@H](C(=O)N2CCC[C@H]2C(=O)N[C@@H](CCCN=C(N)N)C(=O)NCC(N)=O)NC(=O)[C@H](CC(N)=O)NC1=O` [vasopressin] here?
The value was “no change”.

And the “social memory (olfactory investigation)” value [3]?
Its value is “no detectable change”.

For “mutated CD38: human CD38 with substitution of tryptophan for arginine at position 140, found in human diabetes”, which “ADP-ribosyl cyclase activity relative to normal” value [4] is on record?
Its value is “about ⅓”.

With ryanodine as the molecule, how does the “increase in intracellular Ca2+ concentration” value (isolated nerve terminals) read?
The value was “significantly inhibited”.

What about the “oxytocin release from the pituitary nerve terminals” value ([1]; wild-type mice, 200 μM, high-potassium depolarization) of the same molecule?
Its value is “decreased to same levels as those in the CD38−/− mice”.

Source: patent publication US8222004B2, “Diagnosis and treatment of autism using CD38” (National University Corporation Kanazawa University, priority 2006, dated 2012)
